Columns and labels:
Type in all cases: in vivo
[1] = tested on: barnyardgrass (Echinochloa crus-galli); experiment: Test A greenhouse herbicide test, pre- and postemergence
Excerpt: (§1) Seeds of plant species selected from barnyardgrass (Echinochloa crus-galli), kochia (Kochia scoparia), ragweed (common ragweed, Ambrosia elatior), ryegrass, Italian (Italian ryegrass, Lolium multiflorum), crabgrass, large (large crabgrass, Digitaria sanguinalis), foxtail, giant (giant foxtail, Setaria faberii), momingglory (Ipomoea spp.), pigweed (Amaranthus retroflexus), velvetleaf (Abutilon theophrasti), wheat (Triticum aestivum), and corn (Zea mays) were planted into a blend of loam soil and sand and treated preemergence with a directed soil spray using test chemicals formulated in a non-phytotoxic solvent mixture which included a surfactant.
(§2) At the same time, plants selected from these crop and weed species and also blackgrass (Alopecurus myosuroides), and galium (catchweed bedstraw, Galium aparine) were planted in pots containing the same blend of loam soil and sand and treated with postemergence applications of test chemicals formulated in the same manner. Plants ranged in height from 2 to 10 cm and were in the one- to two-leaf stage for the postemergence treatment. Treated plants and untreated controls were maintained in a greenhouse for approximately 10 d, after which time all treated plants were compared to untreated controls and visually evaluated for injury. Plant response ratings, summarized in Table A, are based on a 0 to 100 scale where 0 is no effect and 100 is complete control. A dash (-) response means no test result.

corn (Zea mays) = experiment: as above; conditions: Postemergence
Excerpt: as §1, §2

[2] = tested on: foxtail, giant (giant foxtail, Setaria faberii); experiment: as above
Excerpt: as §1, §2

kochia (Kochia scoparia) = experiment: as above
Excerpt: as §1, §2

[3] = tested on: pigweed (Amaranthus retroflexus); experiment: as above
Excerpt: as §1, §2

[4] = tested on: ragweed (common ragweed, Ambrosia elatior); experiment: as above
Excerpt: as §1, §2

[5] = tested on: ryegrass, Italian (Italian ryegrass, Lolium multiflorum); experiment: as above
Excerpt: as §1, §2

[6] = tested on: wheat (Triticum aestivum); experiment: as above; conditions: Postemergence
Excerpt: as §1, §2

[7] = tested on: blackgrass (Alopecurus myosuroides); experiment: Test A greenhouse herbicide test, postemergence
In short: (§3)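 Scores are visual injury ratings from 0 (no effect) to 100 (complete control) versus untreated plants, taken roughly 10 d after treatment in the greenhouse. Treatment was postemergence, on one- to two-leaf plants 2–10 cm high growing in a loam soil/sand mix.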

[8] = tested on: galium (catchweed bedstraw, Galium aparine); experiment: Test A greenhouse herbicide test, postemergence
In short: as §3

[9] = tested on: barnyardgrass (Echinochloa crus-galli); experiment: Test B flooded paddy test; conditions: 250 g ai/ha, Flood; visual rating on scale of 0 to 100 where 0 is no effect and 100 is complete control; 13 to 15 d after treatment
In short: (§4)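 Ratings use a 0-100 visual scale, where 100 is complete control, and compare treated plants with controls after 13 to 15 d of greenhouse growth. Compound went straight into paddy water kept 3 cm over the soil surface, applied to seedlings at the 2-leaf stage.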

[10] = tested on: ducksalad (Heteranthera limosa); experiment: Test B flooded paddy test; conditions: 250 g ai/ha, Flood; visual rating on scale of 0 to 100 where 0 is no effect and 100 is complete control; 13 to 15 d after treatment
In short: as §4

rice (Oryza sativa) = experiment: Test B flooded paddy test; conditions: 250 g ai/ha, Flood; visual rating on scale of 0 to 100 where 0 is no effect and 100 is complete control; 13 to 15 d after treatment
In short: as §4

[11] = tested on: sedge, umbrella (small-flower umbrella sedge, Cyperus difformis); experiment: Test B flooded paddy test; conditions: 250 g ai/ha, Flood; visual rating on scale of 0 to 100 where 0 is no effect and 100 is complete control; 13 to 15 d after treatment
In short: as §4

[12] = Postemergence, 125 g ai/ha, 0 to 100 scale where 0 is no effect and 100 is complete control
[13] = Postemergence, 500 g ai/ha, visual rating after approx. 10 d, 0 to 100 scale (0 no effect, 100 complete control)
[14] = Preemergence, 125 g ai/ha, 0 to 100 scale where 0 is no effect and 100 is complete control
[15] = Preemergence, 500 g ai/ha, 0 to 100 scale where 0 is no effect and 100 is complete control
[16] = 125 g ai/ha, 0 to 100 scale where 0 is no effect and 100 is complete control
[17] = 500 g ai/ha, visual rating after approx. 10 d, 0 to 100 scale (0 no effect, 100 complete control)
[18] = Postemergence, 125 g ai/ha, 0 to 100 scale, 0 no effect, 100 complete control
[19] = Preemergence, 125 g ai/ha, visual injury rating, 0 to 100 scale (0 no effect, 100 complete control), approx. 10 d
[20] = 125 g ai/ha, 0 to 100 scale, 0 no effect, 100 complete control

Compound	Plant response rating, Barnyardgrass [1, 13]	Plant response rating, Barnyardgrass [1, 15]	Plant response rating, Corn (corn (Zea mays); [17])	Plant response rating, Foxtail, Giant [2, 13]	Plant response rating, Foxtail, Giant [2, 15]	Plant response rating, Kochia (kochia (Kochia scoparia); [13])	Plant response rating, Kochia (kochia (Kochia scoparia); [15])	Plant response rating, Pigweed [3, 13]	Plant response rating, Pigweed [3, 15]	Plant response rating, Ragweed [4, 13]	Plant response rating, Ragweed [4, 15]	Plant response rating, Ryegrass, Italian [5, 13]	Plant response rating, Ryegrass, Italian [5, 15]	Plant response rating, Wheat [6, 17]	Plant response rating, Blackgrass [7, 17]	Plant response rating, Galium [8, 17]	Plant response rating, Barnyardgrass [9]	Plant response rating, Ducksalad [10]	Plant response rating, Rice (rice (Oryza sativa))	Plant response rating, Sedge, Umbrella [11]	further results
C#Cc1ccc2cccc(-c3c(O)c(C)nn(C)c3=O)c2c1 [Compound 150]	30	10	0	30	30	70	20	80	100	30	30	90	70	20	50	80	0	0	0	0	Plant response rating, Barnyardgrass [1, 12]: 0; Barnyardgrass plant response rating [1, 14]: 0; Plant response rating, Corn (corn (Zea mays); [16]): 0; Plant response rating, Foxtail, Giant [2, 12]: 0; Foxtail, Giant plant response rating [2, 14]: 0; Plant response rating, Kochia (kochia (Kochia scoparia); [12]): 40; Kochia plant response rating (kochia (Kochia scoparia); [14]): 0; Plant response rating, Pigweed [3, 12]: 40; Pigweed plant response rating [3, 14]: 80; Plant response rating, Ragweed [4, 12]: 0; Plant response rating, Ryegrass, Italian [5, 12]: 40; Plant response rating, Wheat [6, 16]: 0; Plant response rating, Blackgrass [7, 16]: 0; Plant response rating, Galium [8, 16]: 30
CC(=O)Oc1c(C)nn(C)c(=O)c1-c1c(C(F)(F)F)ccc2ccccc12 [Compound 148]	30	60	0	70	50	90	90	90	100	90	80	90	100	60	80	90	0	0	0	0	Plant response rating, Barnyardgrass [1, 12]: 10; Barnyardgrass plant response rating [1, 14]: 10; Plant response rating, Corn (corn (Zea mays); [16]): 0; Plant response rating, Foxtail, Giant [2, 12]: 30; Foxtail, Giant plant response rating [2, 14]: 20; Plant response rating, Kochia (kochia (Kochia scoparia); [12]): 80; Kochia plant response rating (kochia (Kochia scoparia); [14]): 30; Plant response rating, Pigweed [3, 12]: 90; Pigweed plant response rating [3, 14]: 100; Plant response rating, Ragweed [4, 12]: 90; Plant response rating, Ryegrass, Italian [5, 12]: 90; Plant response rating, Wheat [6, 16]: 20; Plant response rating, Blackgrass [7, 16]: 60; Plant response rating, Galium [8, 16]: 90
CCOC(=O)Oc1c(C)nn(C)c(=O)c1-c1c(C(F)(F)F)ccc2ccccc12 [Compound 146]	30	50	30	70	50	100	70	90	100	100	80	100	80	70	70	90	0	0	0	0	Plant response rating, Barnyardgrass [1, 12]: 0; Barnyardgrass plant response rating [1, 14]: 0; Plant response rating, Corn (corn (Zea mays); [16]): 0; Plant response rating, Foxtail, Giant [2, 12]: 10; Foxtail, Giant plant response rating [2, 14]: 0; Plant response rating, Kochia (kochia (Kochia scoparia); [12]): 70; Kochia plant response rating (kochia (Kochia scoparia); [14]): 20; Plant response rating, Pigweed [3, 12]: 90; Pigweed plant response rating [3, 14]: 100; Plant response rating, Ragweed [4, 12]: 90; Plant response rating, Ryegrass, Italian [5, 12]: 70; Plant response rating, Wheat [6, 16]: 0; Plant response rating, Blackgrass [7, 16]: 20; Plant response rating, Galium [8, 16]: 80
Cc1n[nH]c(=O)c(-c2cccc3ccccc23)c1O [Compound 169]	20	30	30	30	30	100	90	70	100	80	20	100	100	30	20	70	0	0	0	0	Plant response rating, Barnyardgrass [1, 18]: 0; Plant response rating, Barnyardgrass [1, 19]: 0; Plant response rating, Corn (corn (Zea mays); [20]): 0; Plant response rating, Foxtail, Giant [2, 18]: 0; Plant response rating, Foxtail, Giant [2, 19]: 0; Plant response rating, Kochia (kochia (Kochia scoparia); [18]): 40; Plant response rating, Kochia (kochia (Kochia scoparia); [19]): 20; Plant response rating, Pigweed [3, 18]: 20; Plant response rating, Pigweed [3, 19]: 50; Plant response rating, Ragweed [4, 18]: 0; Plant response rating, Ragweed [4, 19]: 0; Plant response rating, Ryegrass, Italian [5, 18]: 70; Plant response rating, Ryegrass, Italian [5, 19]: 80; Plant response rating, Wheat [6, 20]: 0; Plant response rating, Blackgrass [7, 20]: 10; Plant response rating, Galium [8, 20]: 30
Cc1ccc2sc(C)c(-c3c(OCC#N)c(C)nn(C)c3=O)c2c1 [Compound 160]	20	10	0	20	30	60	20	90	100	80	80	90	80	0	20	90	0	0	0	0	Plant response rating, Barnyardgrass [1, 18]: 10; Plant response rating, Barnyardgrass [1, 19]: 10; Plant response rating, Corn (corn (Zea mays); [20]): 0; Plant response rating, Foxtail, Giant [2, 18]: 10; Plant response rating, Foxtail, Giant [2, 19]: 10; Plant response rating, Kochia (kochia (Kochia scoparia); [18]): 30; Plant response rating, Kochia (kochia (Kochia scoparia); [19]): 20; Plant response rating, Pigweed [3, 18]: 80; Plant response rating, Pigweed [3, 19]: 50; Plant response rating, Ragweed [4, 18]: 70; Plant response rating, Ragweed [4, 19]: 30; Plant response rating, Ryegrass, Italian [5, 18]: 30; Plant response rating, Ryegrass, Italian [5, 19]: 20; Plant response rating, Wheat [6, 20]: 0; Plant response rating, Blackgrass [7, 20]: 10; Plant response rating, Galium [8, 20]: 70

Source: patent US10597388B2, “Pyridazinone herbicides” (FMC CORPORATION, priority 2014, dated 2020)
